No end group written: not given here.
Experiments:
S. mutans UA159 biofilm = experiment: Minimum biofilm inhibition concentration (MBIC50), MTT; assay type: cell-based, Streptococcus mutans; conditions: 24 h
Protocol: Characterization analysis of pHly -1 NPs at different pHs. The morphology of pHly-1 NPs at pH 4.5 and 7.0were analyzed by TEM and AFM, respectively 3,4. TEM images were taken by a Tecnai G2 F20 microscope with an accelerating voltage of 100 kV. The final concentration of TEM samples of pHly -1 NPs was 100 μM. An 8 μL TEM sample was pipetted onto the carbon-coated copper grid surface for 3 min and removed by filter paper. Then, 8 μ L of 2 wt % uranyl acetate was dripped onto the grid for staining 3 min. After removing the droplet with filter paper, the grid was dried in a desiccator before measurement. […]
The secondary structure of pHly-1 NPs in different solutions at pH 4.5 and 7.0 was determined by Jasco-810 spectropolarimeter using 2 mm quartz slides at 25 °C.
According to the method reported in the literature5 to prepare l iposome required in the secondary structure test. […] All spectra were recorded with a wavelength interval of 0.5 nm. […] In addition, Zeta (ζ ) potentials and hydrodynamic sizes of pHly-1 NPs were measured using a Zetasizer (Malvern Instruments, UK). […]
RNA- seq Analysis. […] T he quality and quantity of the RNA were assessed by NanoDrop 2000/2000c (Thermo Scientific, Wilmington, DE, USA). RNA integrity number (RIN) was analyzed by Agilent 2100 Bioanalyzer (Agilent Technologies, Santa Clara, CA, USA). […] The cleaned reads were mapped to the S.mutans reference genome using Rockhooper26. […]

fresh mice erythrocytes = assay type: cell-based, mouse; conditions: 30 min, PBS pH 7.4
Excerpt: Peptide and different pH of culture medium prepared. The pH of BHI medium was adjusted by HCl and NaOH. All peptides, including lycosin- I, pHly-1, s-pHly-1 were synthesized on a Rink amide-AM resin using the SPPS
(9- fluorenyl-methoxycarbonyl solid-phase peptide synthesis) method as reported previously1. Then peptides were cleaved from the resin using TFA/1,2- ethanedithiol/thioanisole/anisole (90/5/3/2 (v/v)), precipitated in cold diethyl ether and the collected precipitate was dried by air -drying . The prepared peptides were purified by reverse phase- HPLC (RP-HPLC) and their molecular weights were determined by MALDI-TOF MS.
Hemolytic assay. Approximately 4 % (in volume) of the mouse erythrocyte s were prepared by diluting fresh erythrocytes to 25-fold dilution with PBS buffer (pH 7.4).
The stock peptide solution ([…]) diluted by PBS solution to reach various concentrations (200 μL) was placed in a 1.5 mL sterile microfuge tube, followed by the addition of 200 μ L o f erythrocyte suspension. The mixture was incubated at 37 °C for 30 min. Then, the mixture was centrifuged at 3,500 rpm for 5 min to collect the supernatant. Aliquots (100 μL) of the supernatant were removed to 96-well plates, and the absorbance was detected at 450 nm using a microplate reader (Multiskan Spectrum, BioTek Inc., USA). Untreated erythrocyte suspension in an equal volume of PBS solution and 0.1% Triton X-100 were used as the negative control and positive […]
Isolation and culture of clinical S.mutans strains. Ethical approval of the study and the written consent/permission forms were obtained from Institutional Review Board (IRB) at Hunan Normal University prior to the study. For each child, written permission form was reviewed and signed by their legal guardians. Plaque -biofilm samples were collected from patients, including 16 Middle-aged and young patients and 4 children (age between 48 and 72 months) diagnosed with severe early childhood caries (S-ECC) in Changsha Stomatological Hospital. […]

Molecule	MBIC50 (S. mutans UA159 biofilm; pH 5.5, BHI with 1% sucrose) [µM]	MBIC50 (S. mutans UA159 biofilm; pH 7.0, BHI with 1% sucrose) [µM]	hemolysis (fresh mice erythrocytes; 500 μM)	HC50 (fresh mice erythrocytes; 37 °C) [µM]
[H]/N=C(\N/C(=N/[H])NCCCCCCNC(=N)NC(=N)Nc1ccc(Cl)cc1)Nc1ccc(Cl)cc1 [CHX, chlorhexidine]	0.6	0.8		
KIWFHAMHIIAHFIAHQHLHQHL-NH2 [pHly-1 NPs]			about 20%	> 500

— PMC9254247, “Dual-sensitive antibacterial peptide nanoparticles prevent dental caries” (Theranostics, 2022)
